Tested on: male ICR mice
Assay: Formalin paw test
Assay type: in vivo, mouse
Details: for Early Phase: early/acute phase (0-10 minutes) after 2% formalin into hind paw; for Late Phase: late/tonic phase (10-35 minutes) after 2% formalin into hind paw
Method: One test compound or the vehicle was administered to each mouse in each test group (8 mice per group). Non-fasted male ICR mice weighing 23±3 g were used. Test compounds were administered at a concentration of 30 mg/kg, 100 mg/kg or 200 mg/kg; morphine was administered at a concentration of 10 mg/kg; and acetaminophen was administered at a concentration of >100 mg/kg. The control group received the vehicle (5% DMSO/15% PEG400/10% HPbCD/0.9% Saline). After 10 minutes, a 2% formalin solution (0.02 mL) was injected into one hind paw (sub-plantar) of each mouse. Responses were measured every 5 minutes after the formalin injection for 35 minutes.
The results in Table A are for oral administration; the results in Table B are for intraperitoneal administration; the results in Table C are for intravenous administration. In Tables A, B, and C, ‘A’ designates <70 licks/sec, ‘B’ designates ≥70 licks/sec and <165 licks/sec, and ‘C’ designates ≥165 licks/sec.

[1] = intraperitoneal administration, 30 mg/kg
[2] = intravenous administration, 100 mg/kg

Compound	Early Phase [1]	Late Phase [1]	other results
Nc1nnc(C(F)(F)F)s1 [Compound 5]	B (‘B’ designates ≥70 licks/sec and <165 licks/sec)	C (‘C’ designates ≥165 licks/sec)	–
Cc1coc(N)n1 [Compound 1]	B (‘B’ designates ≥70 licks/sec and <165 licks/sec)	C (‘C’ designates ≥165 licks/sec)	–
CC(C)(C)c1nnc(CN)s1 [Compound 3]	A (‘A’ designates <70 licks/sec)	B (‘B’ designates ≥70 licks/sec and <165 licks/sec)	–
Cc1nc(N)oc1C [Compound 16]	A (‘A’ designates <70 licks/sec)	A (‘A’ designates <70 licks/sec)	–
CC(C)(C)c1nccc(N)n1 [Compound 19]	B (‘B’ designates ≥70 licks/sec and <165 licks/sec)	C (‘C’ designates ≥165 licks/sec)	–
Nc1cccc(C(F)(F)F)n1 [Compound 21]	B (‘B’ designates ≥70 licks/sec and <165 licks/sec)	C (‘C’ designates ≥165 licks/sec)	–
NCc1cccc(C(F)(F)F)n1 [Compound 24]	B (‘B’ designates ≥70 licks/sec and <165 licks/sec)	C (‘C’ designates ≥165 licks/sec)	–
Nc1nccc(C(F)(F)F)n1 [Compound 20]	B (‘B’ designates ≥70 licks/sec and <165 licks/sec)	C (‘C’ designates ≥165 licks/sec)	–
NCc1nc(C(F)(F)F)cs1 [Compound 8]	A (‘A’ designates <70 licks/sec)	A (‘A’ designates <70 licks/sec)	–
CC(=O)Nc1ccc(C(F)(F)F)cc1 [Compound 29]	–	–	Early Phase (oral administration, 200 mg/kg): A (‘A’ designates <70 licks/sec); Late Phase (oral administration, 200 mg/kg): A (‘A’ designates <70 licks/sec)
NCc1ccc(C(F)(F)F)cc1 [Compound 18]	B (‘B’ designates ≥70 licks/sec and <165 licks/sec)	C (‘C’ designates ≥165 licks/sec)	–
CC(=O)Nc1ccc(C(C)(C)C)cc1 [Compound 28]	–	–	Early Phase (oral administration, 200 mg/kg): B (‘B’ designates ≥70 licks/sec and <165 licks/sec); Late Phase (oral administration, 200 mg/kg): B (‘B’ designates ≥70 licks/sec and <165 licks/sec)
CC(C)(C)c1csc(N)n1 [Compound 10]	A (‘A’ designates <70 licks/sec)	A (‘A’ designates <70 licks/sec)	–
Nc1ncc(C(F)(F)F)cn1 [Compound 22]	B (‘B’ designates ≥70 licks/sec and <165 licks/sec)	C (‘C’ designates ≥165 licks/sec)	–
CC(=O)NCc1ccc(C(F)(F)F)cc1 [Compound 27]	–	–	Early Phase [2]: A (‘A’ designates <70 licks/sec); Late Phase [2]: A (‘A’ designates <70 licks/sec)
NCCc1nc(C(F)(F)F)cs1 [Compound 9]	A (‘A’ designates <70 licks/sec)	A (‘A’ designates <70 licks/sec)	–
CC(C)(C)c1nnc(N)s1 [Compound 4]	B (‘B’ designates ≥70 licks/sec and <165 licks/sec)	C (‘C’ designates ≥165 licks/sec)	–
Cc1cc(CN)nn1C [Compound 17]	B (‘B’ designates ≥70 licks/sec and <165 licks/sec)	B (‘B’ designates ≥70 licks/sec and <165 licks/sec)	–
NCCc1ccc(C(F)(F)F)cc1 [Compound 25]	A (‘A’ designates <70 licks/sec)	B (‘B’ designates ≥70 licks/sec and <165 licks/sec)	–
Cc1nc(CN)cs1 [Compound 14]	B (‘B’ designates ≥70 licks/sec and <165 licks/sec)	C (‘C’ designates ≥165 licks/sec)	–
CCn1cc(CN)cn1 [Compound 15]	B (‘B’ designates ≥70 licks/sec and <165 licks/sec)	A (‘A’ designates <70 licks/sec)	–
Nc1nnc(C(F)(F)F)o1 [Compound 2]	B (‘B’ designates ≥70 licks/sec and <165 licks/sec)	C (‘C’ designates ≥165 licks/sec)	–
CC(C)(C)C(=O)Nc1ccc(O)cc1 [Compound 26]	–	–	Early Phase (oral administration, 200 mg/kg): B (‘B’ designates ≥70 licks/sec and <165 licks/sec); Late Phase (oral administration, 200 mg/kg): B (‘B’ designates ≥70 licks/sec and <165 licks/sec)
CC(C)(C)c1csc(CN)n1 [Compound 7]	B (‘B’ designates ≥70 licks/sec and <165 licks/sec)	A (‘A’ designates <70 licks/sec)	–
CC(C)(C)c1nnc(N)o1 [Compound 6]	B (‘B’ designates ≥70 licks/sec and <165 licks/sec)	C (‘C’ designates ≥165 licks/sec)	–
Cc1ncc(CN)s1 [Compound 13]	B (‘B’ designates ≥70 licks/sec and <165 licks/sec)	C (‘C’ designates ≥165 licks/sec)	–

— patent publication US10653681B2, “Analgesic compounds” (Recurium IP Holdings, LLC, priority 2016, dated 2020)
